Source: US10669283B2, “Compound and pharmacologically acceptable salt thereof” (MEIJI SEIKA PHARMA CO., LTD., priority 2016, dated 2020)

System: PDE4
Assay: PDE4 inhibition, scintillation proximity assay (SPA);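 on PDE4 Inhibitory Activity (concentration for the inhibition rate of 50%): A below 100 nM B 100 to below 1000 nM C 1000 nM or more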
Format: biochemical
Details: scintillation proximity assay (SPA); evaluated as classes A, B, C; read-out: PDE4 Inhibitory Activity (concentration for the inhibition rate of 50%)
Method in brief: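 Compound pre-diluted 1:10 in 50 mM Tris-HCl pH 7.4, 8.3 mM MgCl2, 1.7 mM EGTA, 3 mg/mL BSA, then incubated with PDE4 and [2,8-3H]-cAMP for 120 min at room temperature. Product captured on ZnSO4-containing YSi-SPA beads for 15 min; radioactivity counted against no-enzyme blank and DMSO control.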

`CC(O)c1cc(-c2nccs2)c2oc(N3CC4CC(C3)N4)nc2c1OC(F)(F)F` (centres unmarked) [Example 272, 1-(2-(3,6-Diazabicyclo[3.1.1]heptan-3-yl)-7-(thiazol-2-yl)-4-(trifluoromethoxy)benzo[d]oxazol-5-yl)ethan-1-ol] and `CC(O)c1cc(-c2nccs2)c2oc(N3CC4CC(C3)N4)nc2c1C(F)(F)F` (centres unmarked) [Example 182, 1-(2-(3,6-Diazabicyclo[3.1.1]heptan-3-yl)-7-(thiazol-2-yl)-4-(trifluoromethyl)benzo[d]oxazol-5-yl)ethan-1-ol] cannot be ordered by IC50: under 100 nM for the first, under 100 nM for the second.

First: CCOC(=O)c1cc(-n2cccn2)c2oc(N3CC4CC(C3)N4)nc2c1 [Example 91, Ethyl 2-(3,6-diazabicyclo[3.1.1]heptan-3-yl)-7-(1H-pyrazol-1-yl)benzo[d]oxazole-5-carboxylate]
Second: CCOC(=O)c1cc(-c2nccs2)c2oc(N3CC4COCC(C3)N4)nc2c1 [Example 88, Ethyl 2-(3-oxa-7,9-diazabicyclo[3.3.1]nonan-7-yl)-7-(thiazol-2-yl)benzo[d]oxazole-5-carboxylate]
The IC50 of the first is higher: over 1000 nM for the first, 100 to 1000 nM for the second. The second is the more potent here.

`OCc1cc(-c2nccs2)c2oc(N3CC4CCC(C3)N4)nc2c1C(F)(F)F` [Example 170, (2-(3,8-Diazabicyclo[3.2.1]octan-3-yl)-7-(thiazol-2-yl)-4-(trifluoromethyl)benzo[d]oxazol-5-yl)methanol] and `FC(F)(F)c1c(Cl)cc(-c2nccs2)c2oc(N3CC4CCC(C3)N4)nc12` [Example 20, 2-(3,8-Diazabicyclo[3.2.1]octan-3-yl)-5-chloro-7-(thiazol-2-yl)-4-(trifluoromethyl)benzo[d]oxazole] cannot be ordered by IC50: under 100 nM for the first, under 100 nM for the second.

`CC(C)(O)c1cc(-c2cscn2)c2oc(N3CC4CC(C3)N4)nc2c1OC(F)(F)F` [Example 288, 2-(2-(3,6-Diazabicyclo[3.1.1]heptan-3-yl)-7-(thiazol-4-yl)-4-(trifluoromethoxy)benzo[d]oxazol-5-yl)propan-2-ol] and `CC(C)(O)COC(c1ccc(-c2cscn2)c2oc(N3CC4CC(C3)N4)nc12)C(F)(F)F` (centres unmarked) [Example 284, 1-(1-(2-(3,6-Diazabicyclo[3.1.1]heptan-3-yl)-7-(thiazol-4-yl)benzo[d]oxazol-4-yl)-2,2,2-trifluoroethoxy)-2-methylpropan-2-ol] cannot be ordered by IC50: under 100 nM for the first, under 100 nM for the second.

`CC(C)(O)C(C)(C)OC(c1ccc(-c2nccs2)c2oc(N3CC4CC(C3)N4)nc12)C(F)(F)F` (centres unmarked) [Example 280, 3-(1-(2-(3,6-Diazabicyclo[3.1.1]heptan-3-yl)-7-(thiazol-2-yl)benzo[d]oxazol-4-yl)-2,2,2-trifluoroethoxy)-2,3-dimethylbutan-2-ol] and `CC(C)(O)COC(c1ccc(-c2nccs2)c2oc(N3CC4CC(C3)N4)nc12)C(F)F` (centres unmarked) [Example 127, 1-(1-(2-(3,6-Diazabicyclo[3.1.1]heptan-3-yl)-7-(thiazol-2-yl)benzo[d]oxazol-4-yl)-2,2-difluoroethoxy)-2-methylpropan-2-ol] cannot be ordered by IC50: under 100 nM for the first, under 100 nM for the second.

`OC(c1cc(-c2nccs2)c2oc(N3CC4CCC(C3)N4)nc2c1OC(F)(F)F)C(F)F` (centres unmarked) [Example 276, 1-(2-(3,8-Diazabicyclo[3.2.1]octan-3-yl)-7-(thiazol-2-yl)-4-(trifluoromethoxy)benzo[d]oxazol-5-yl)-2,2-difluoroethan-1-ol] and `OC1(c2cc(-c3nccs3)c3oc(N4CC5CC(C4)N5)nc3c2OC(F)(F)F)CC1` [Example 269, 1-(2-(3,6-Diazabicyclo[3.1.1]heptan-3-yl)-7-(thiazol-2-yl)-4-(trifluoromethoxy)benzo[d]oxazol-5-yl)cyclopropan-1-ol] cannot be ordered by IC50: under 100 nM for the first, under 100 nM for the second.

`COCCOC(c1cc(-c2nccs2)c2oc(N3CC4CCC(C3)N4)nc2c1)C(F)(F)F` (centres unmarked) [Example 147, 2-(3,8-Diazabicyclo[3.2.1]octan-3-yl)-7-(thiazol-2-yl)-5-(2,2,2-trifluoro-1-(2-methoxyethoxy)ethyl)benzo[d]oxazole] and `COCCOc1cc(-c2nccs2)c2oc(N3CC4CCC(C3)N4)nc2c1` [Example 69, 2-(3,8-Diazabicyclo[3.2.1]octan-3-yl)-5-(2-methoxyethoxy)-7-(thiazol-2-yl)benzo[d]oxazole] cannot be ordered by IC50: under 100 nM for the first, under 100 nM for the second.

`CC(C)(CO)Oc1ccc(-c2nccs2)c2oc(N3CC4CC(C3)N4)nc12` [Example 268, 2-((2-(3,6-Diazabicyclo[3.1.1]heptan-3-yl)-7-(thiazol-2-yl)benzo[d]oxazol-4-yl)oxy)-2-methylpropan-1-ol] and `CC(O)(c1ccc(-c2nccs2)c2oc(N3CC4CC(C3)N4)nc12)C(F)F` (centres unmarked) [Example 126, 2-(2-(3,6-Diazabicyclo[3.1.1]heptan-3-yl)-7-(thiazol-2-yl)benzo[d]oxazol-4-yl)-1,1-difluoropropan-2-ol] cannot be ordered by IC50: under 100 nM for the first, under 100 nM for the second.

`FC(F)(F)c1ccc(-c2nccs2)c2oc(N3CC4CCCC(C3)N4)nc12` [Example 33, 2-(3,9-Diazabicyclo[3.3.1]nonan-3-yl)-7-(thiazol-2-yl)-4-(trifluoromethyl)benzo[d]oxazole] and `COC(C)(C)c1cc(-c2nccs2)c2oc(N3CC4CCCC(C3)N4)nc2c1OC(F)(F)F` [Example 200, 2-(3,9-Diazabicyclo[3.3.1]nonan-3-yl)-5-(2-methoxypropan-2-yl)-7-(thiazol-2-yl)-4-(trifluoromethoxy)benzo[d]oxazole] cannot be ordered by IC50: under 100 nM for the first, under 100 nM for the second.

`OC1(COC(c2ccc(-c3cscn3)c3oc(N4CC5CC(C4)N5)nc23)C(F)(F)F)CC1` (centres unmarked) [Example 286, 1-((1-(2-(3,6-Diazabicyclo[3.1.1]heptan-3-yl)-7-(thiazol-4-yl)benzo[d]oxazol-4-yl)-2,2,2-trifluoroethoxy)methyl)cyclopropan-1-ol] and `CC(C)(O)C(F)(F)Oc1ccc(-c2ncco2)c2oc(N3CC4CC(C3)N4)nc12` [Example 290, 1-((2-(3,6-Diazabicyclo[3.1.1]heptan-3-yl)-7-(oxazol-2-yl)benzo[d]oxazol-4-yl)oxy)-1,1-difluoro-2-methylpropan-2-ol] cannot be ordered by IC50: under 100 nM for the first, under 100 nM for the second.

`CCOC(=O)c1cc(-c2nccs2)c2oc(N3CC4CCCC(C3)N4)nc2c1OC(F)(F)F` [Example 188, Ethyl 2-(3,9-diazabicyclo[3.3.1]nonan-3-yl)-7-(thiazol-2-yl)-4-(trifluoromethoxy)benzo[d]oxazole-5-carboxylate] and `CCOC(=O)c1cc(-c2nccs2)c2oc(N3CC4CC(C3)N4)nc2c1C(F)(F)F` [Example 165, Ethyl 2-(3,6-diazabicyclo[3.1.1]heptan-3-yl)-7-(thiazol-2-yl)-4-(trifluoromethyl)benzo[d]oxazole-5-carboxylate] cannot be ordered by IC50: under 100 nM for the first, under 100 nM for the second.

`COC(C)(C)c1cc(-c2nccs2)c2oc(N3CC4CC(C3)N4)nc2c1` [Example 174, 2-(3,6-Diazabicyclo[3.1.1]heptan-3-yl)-5-(2-methoxypropan-2-yl)-7-(thiazol-2-yl)benzo[d]oxazole] and `CSc1cc(-c2nccs2)c2oc(N3CC4CC(C3)N4)nc2c1` [Example 40, 2-(3,6-Diazabicyclo[3.1.1]heptan-3-yl)-5-(methylthio)-7-(thiazol-2-yl)benzo[d]oxazole] cannot be ordered by IC50: under 100 nM for the first, under 100 nM for the second.

`CC(C)(O)c1cc(-c2nccs2)c2oc(N3CC4CC(C3)N4)nc2c1C(F)(F)F` [Example 178, 2-(2-(3,6-Diazabicyclo[3.1.1]heptan-3-yl)-7-(thiazol-2-yl)-4-(trifluoromethyl)benzo[d]oxazol-5-yl)propan-2-ol] and `CC(C)c1cc(-c2nccs2)c2oc(N3CC4CCCC(C3)N4)nc2c1` [Example 24, 2-(3,9-Diazabicyclo[3.3.1]nonan-3-yl)-5-isopropyl-7-(thiazol-2-yl)benzo[d]oxazole] cannot be ordered by IC50: under 100 nM for the first, under 100 nM for the second.

`NC(=O)c1cc(-c2nccs2)c2oc(N3CC4CCC(C3)N4)nc2c1` [Example 99, 2-(3,8-Diazabicyclo[3.2.1]octan-3-yl)-7-(thiazol-2-yl) benzo[d]oxazole-5-carboxamide] and `CSc1cc(-c2nccs2)c2oc(N3CC4CCC(C3)N4)nc2c1` [Example 39, 2-(3,8-Diazabicyclo[3.2.1]octan-3-yl)-5-(methylthio)-7-(thiazol-2-yl)benzo[d]oxazole] cannot be ordered by IC50: under 100 nM for the first, under 100 nM for the second.

`OC(c1cc(-n2cccn2)c2oc(N3CC4CCC(C3)N4)nc2c1)C(F)(F)F` (centres unmarked) [Example 140, 1-(2-(3,8-Diazabicyclo[3.2.1]octan-3-yl)-7-(1H-pyrazol-1-yl)benzo[d]oxazol-5-yl)-2,2,2-trifluoroethan-1-ol] and `c1csc(-c2ccc(OC3CCC3)c3nc(N4CC5CCC(C4)N5)oc23)n1` [Example 81, 2-(3,8-Diazabicyclo[3.2.1]octan-3-yl)-4-cyclobutoxy-7-(thiazol-2-yl)benzo[d]oxazole] cannot be ordered by IC50: under 100 nM for the first, under 100 nM for the second.

Same assay, conditions: scintillation proximity assay; class symbols; read-out: PDE4 Inhibitory Activity

`CN(C)C(=O)C(F)(F)Oc1ccc(-c2nccs2)c2oc(N3CC4CC(C3)N4)nc12` [Example 408, 2-((2-(3,6-diazabicyclo [3.1.1]heptan-3-yl)-7-(thiazol-2-yl)benzo[d]oxazol-4-yl)oxy)-2,2-difluoro-N,N-dimethyl-acetamide] and `CCC(F)(F)Oc1ccc(-c2nccs2)c2oc(N3CC4CC(C3)N4)nc12` [Example 402, 2-(3,6-diazabicyclo [3.1.1]heptan-3-yl)-4-(1,1-difluoro-propoxy)-7-(thiazol-2-yl) benzo[d] oxazole] cannot be ordered by IC50: under 100 nM for the first, under 100 nM for the second.

Compared with `O=C(O)c1ccc(-c2nccs2)c2oc(N3CC4CC(C3)N4)nc12` [Example 366, 2-(3,6-diazabicyclo [3.1.1]heptan-3-yl)-7-(thiazol-2-yl)benzo[d] oxazole-4-carboxylic acid], `CSc1ccc(-c2nccs2)c2oc(N3CC4CC(C3)N4)nc12` [Example 345, 2-(3,6-diazabicyclo[3.1.1]heptan-3-yl)-4-(methylthio)-7-(thiazol-2-yl)benzo [d]oxazole] is lower in IC50: 100 to 1000 nM for the first, under 100 nM for the second. The second is the more potent here.

`CN(CCO)S(=O)(=O)c1ccc(-c2nccs2)c2oc(N3CC4CC(C3)N4)nc12` [Example 389, 2-(3,6-diazabicyclo[3.1.1]heptan-3-yl)-N-(2-hydroxyethyl)-N-methyl-7-(thiazol-2-yl)benzo[d] oxazole-4-sulfonamide] showed an IC50 of under 100 nM.
